Measurements: PubChem BioAssay (NCI)
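In this assay, cells in 96-well plates receive the compound at five concentrations for 48 hours. Endpoints are linearly interpolated between the surrounding concentrations. TGI marks complete inhibition of growth.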 Calls of active or inactive are those of the source. Rule as the data show it: active = GI50 below about 0.43 µM; inactive = the rest.

Assays:
Test in all cases: DTP human tumour cell line panel, 48 h
SK-OV-3 ovarian = test system: SK-OV-3 ovarian
HCC-2998 colon = test system: HCC-2998 colon
BT-549 breast = test system: BT-549 breast
SN12C renal = test system: SN12C renal
HCT-15 colon = test system: HCT-15 colon
MALME-3M melanoma = test system: MALME-3M melanoma
NCI-H226 lung = test system: NCI-H226 lung
UACC-62 melanoma = test system: UACC-62 melanoma
DU-145 prostate = test system: DU-145 prostate
T-47D breast = test system: T-47D breast
COLO 205 colon = test system: COLO 205 colon
SF-539 CNS = test system: SF-539 CNS
SNB-19 CNS = test system: SNB-19 CNS
PC-3 prostate = test system: PC-3 prostate
SK-MEL-28 melanoma = test system: SK-MEL-28 melanoma
OVCAR-4 ovarian = test system: OVCAR-4 ovarian
MDA-N = test system: MDA-N
OVCAR-3 ovarian = test system: OVCAR-3 ovarian
SNB-75 CNS = test system: SNB-75 CNS
K-562 leukemia = test system: K-562 leukemia
CCRF-CEM leukemia = test system: CCRF-CEM leukemia
SW-620 colon = test system: SW-620 colon
CAKI-1 renal = test system: CAKI-1 renal
KM12 colon = test system: KM12 colon
786-0 renal = test system: 786-0 renal
HS 578T breast = test system: HS 578T breast
LOX IMVI melanoma = test system: LOX IMVI melanoma
EKVX NSCLC = test system: EKVX NSCLC
HOP-62 NSCLC = test system: HOP-62 NSCLC
NCI-H460 lung = test system: NCI-H460 lung
SF-295 CNS = test system: SF-295 CNS
NCI-H23 lung = test system: NCI-H23 lung
HT29 colon = test system: HT29 colon
SK-MEL-5 melanoma = test system: SK-MEL-5 melanoma
MOLT-4 leukemia = test system: MOLT-4 leukemia
RXF 393 renal = test system: RXF 393 renal
UO-31 renal = test system: UO-31 renal
OVCAR-8 ovarian = test system: OVCAR-8 ovarian
A498 renal = test system: A498 renal
MCF7 breast = test system: MCF7 breast
SR leukemia = test system: SR leukemia
M14 melanoma = test system: M14 melanoma
A549 NSCLC = test system: A549 NSCLC
SK-MEL-2 melanoma = test system: SK-MEL-2 melanoma
U251 CNS = test system: U251 CNS
OVCAR-5 ovarian = test system: OVCAR-5 ovarian
SF-268 CNS = test system: SF-268 CNS
UACC-257 melanoma = test system: UACC-257 melanoma
RPMI-8226 leukemia = test system: RPMI-8226 leukemia
NCI/ADR-RES ovarian = test system: NCI/ADR-RES ovarian
HL-60(TB) leukemia = test system: HL-60(TB) leukemia
TK-10 renal = test system: TK-10 renal
IGROV1 ovarian = test system: IGROV1 ovarian
HOP-92 NSCLC = test system: HOP-92 NSCLC
HCT-116 colon = test system: HCT-116 colon
NCI-H522 lung = test system: NCI-H522 lung
MDA-MB-435 = test system: MDA-MB-435
MDA-MB-231 breast = test system: MDA-MB-231 breast
ACHN renal = test system: ACHN renal

Measured: TGI

CCCC(=O)OCC(COC(=O)CCC)OC(=O)CCC
inactive: SK-OV-3 ovarian | HCC-2998 colon | SN12C renal | HCT-15 colon | MALME-3M melanoma | NCI-H226 lung | DU-145 prostate | COLO 205 colon | SF-539 CNS | SNB-19 CNS | PC-3 prostate | SK-MEL-28 melanoma | OVCAR-4 ovarian | MDA-N | SNB-75 CNS | K-562 leukemia | CCRF-CEM leukemia | SW-620 colon | CAKI-1 renal | KM12 colon | 786-0 renal | HS 578T breast | LOX IMVI melanoma | EKVX NSCLC | HOP-62 NSCLC | NCI-H460 lung | SF-295 CNS | NCI-H23 lung | HT29 colon | SK-MEL-5 melanoma | MOLT-4 leukemia | UO-31 renal | OVCAR-8 ovarian | A498 renal | MCF7 breast | SR leukemia | M14 melanoma | A549 NSCLC | SK-MEL-2 melanoma | U251 CNS | SF-268 CNS | UACC-257 melanoma | RPMI-8226 leukemia | NCI/ADR-RES ovarian | HL-60(TB) leukemia | TK-10 renal | HCT-116 colon | MDA-MB-435 | MDA-MB-231 breast | ACHN renal
> 100 µM: SK-OV-3 ovarian | HCC-2998 colon | BT-549 breast | SN12C renal | HCT-15 colon | MALME-3M melanoma | NCI-H226 lung | UACC-62 melanoma | DU-145 prostate | T-47D breast | COLO 205 colon | SF-539 CNS | SNB-19 CNS | PC-3 prostate | SK-MEL-28 melanoma | OVCAR-4 ovarian | MDA-N | OVCAR-3 ovarian | SNB-75 CNS | K-562 leukemia | CCRF-CEM leukemia | SW-620 colon | CAKI-1 renal | KM12 colon | 786-0 renal | HS 578T breast | LOX IMVI melanoma | EKVX NSCLC | HOP-62 NSCLC | NCI-H460 lung | SF-295 CNS | NCI-H23 lung | HT29 colon | SK-MEL-5 melanoma | MOLT-4 leukemia | RXF 393 renal | UO-31 renal | OVCAR-8 ovarian | A498 renal | MCF7 breast | M14 melanoma | A549 NSCLC | SK-MEL-2 melanoma | U251 CNS | OVCAR-5 ovarian | SF-268 CNS | UACC-257 melanoma | RPMI-8226 leukemia | TK-10 renal | IGROV1 ovarian | HOP-92 NSCLC | HCT-116 colon | NCI-H522 lung | MDA-MB-435 | MDA-MB-231 breast | ACHN renal
90.7 µM: HL-60(TB) leukemia
88.6 µM: NCI/ADR-RES ovarian

O=C(NC(N1CCN(c2cc3c(cc2F)c(=O)c(C(=O)O)cn3C2CC2)CC1)(C(F)(F)F)C(F)(F)F)c1ccccc1
80.8 µM: SF-539 CNS | UACC-257 melanoma
62 µM: MOLT-4 leukemia
66 µM: HCC-2998 colon
77.5 µM: MALME-3M melanoma
70.6 µM: MDA-MB-231 breast
34.8 µM: COLO 205 colon
84.4 µM: KM12 colon
53.8 µM: HL-60(TB) leukemia
38.7 µM: NCI-H522 lung
93.3 µM: HOP-92 NSCLC
85.4 µM: CAKI-1 renal
87.2 µM: SR leukemia
61.6 µM: HCT-15 colon
81.5 µM: UO-31 renal
69.9 µM: RPMI-8226 leukemia
72.3 µM: CCRF-CEM leukemia
96.1 µM: OVCAR-3 ovarian
94.4 µM: A498 renal
65.4 µM: OVCAR-5 ovarian
94.1 µM: SK-OV-3 ovarian
62.9 µM: SK-MEL-5 melanoma
89.2 µM: NCI-H23 lung
87.4 µM: TK-10 renal
> 100 µM: all other assays above

CCCCCOc1ccc(Nc2c(O)c3c(c(O)c2Cl)C(=O)C=CC3=O)cc1
9.97 µM: OVCAR-4 ovarian
7.76 µM: RPMI-8226 leukemia
3.93 µM: HCT-15 colon
> 6.38 µM: MALME-3M melanoma
> 9.64 µM: T-47D breast
> 6.54 µM: OVCAR-3 ovarian
6.99 µM: SR leukemia
7.39 µM: HS 578T breast
5.39 µM: NCI-H522 lung
> 6.94 µM: BT-549 breast
> 6.51 µM: NCI-H23 lung
5.53 µM: MDA-MB-435
> 9.3 µM: MDA-N
> 8.02 µM: COLO 205 colon
> 8.25 µM: MDA-MB-231 breast
> 9.51 µM: HOP-92 NSCLC
> 9.65 µM: K-562 leukemia
3.72 µM: LOX IMVI melanoma
8.66 µM: SK-MEL-28 melanoma
3.79 µM: HL-60(TB) leukemia
> 9.67 µM: UO-31 renal
> 7.84 µM: HCC-2998 colon
> 5.87 µM: OVCAR-8 ovarian
> 10 µM: all other assays above
